In article PMC5099554 (British Journal of Clinical Pharmacology, 2016):
Like-named read-outs stand apart in the source and are kept apart here.

Key:
[1] = target: CYP3A4 (Homo sapiens, UniProt P08684); conditions: in vitro; cited from earlier work
[2] = for Tmax / AUC(0-inf) / AUC(0-t) / half-life: male, human, in vivo; for AUC(0-inf): AUCinf; for AUC(0-inf) / AUC(0-t): geometric mean; for AUC(0-t): AUClast; for half-life: t 1/2, geometric mean
[3] = test system: CYP enzyme; conditions: in vitro studies; cited from earlier work
[4] = target: CYP2C9 (Homo sapiens, UniProt P11712); conditions: in vitro; cited from earlier work
Chain of CYP2C9 (P11712 whole entry): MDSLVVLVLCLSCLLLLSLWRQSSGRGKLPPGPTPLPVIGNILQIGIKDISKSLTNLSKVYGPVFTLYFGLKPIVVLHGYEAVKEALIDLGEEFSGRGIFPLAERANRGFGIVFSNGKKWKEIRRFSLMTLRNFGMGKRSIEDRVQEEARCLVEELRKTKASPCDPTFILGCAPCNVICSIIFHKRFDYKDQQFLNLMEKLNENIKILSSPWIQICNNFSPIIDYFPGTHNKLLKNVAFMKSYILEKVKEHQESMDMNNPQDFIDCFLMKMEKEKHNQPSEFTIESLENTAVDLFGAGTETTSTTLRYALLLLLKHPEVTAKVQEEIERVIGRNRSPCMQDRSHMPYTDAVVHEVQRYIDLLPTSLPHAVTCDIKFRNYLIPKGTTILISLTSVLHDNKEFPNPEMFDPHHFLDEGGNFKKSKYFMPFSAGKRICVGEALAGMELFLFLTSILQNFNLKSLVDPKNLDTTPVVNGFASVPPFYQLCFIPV

[5] = healthy male subjects, plasma, after 2 weeks of fermented red ginseng
[6] = healthy male subjects, plasma, before fermented red ginseng
[7] = After FRG, healthy male subjects, plasma, after 2 weeks of fermented red ginseng
[8] = Before FRG, healthy male subjects, plasma, before fermented red ginseng
[9] = t max (median), After FRG, healthy male subjects, plasma, after 2 weeks of fermented red ginseng
[10] = t max (median), Before FRG, healthy male subjects, plasma, before fermented red ginseng

Chain of CYP3A4 (P08684 whole entry): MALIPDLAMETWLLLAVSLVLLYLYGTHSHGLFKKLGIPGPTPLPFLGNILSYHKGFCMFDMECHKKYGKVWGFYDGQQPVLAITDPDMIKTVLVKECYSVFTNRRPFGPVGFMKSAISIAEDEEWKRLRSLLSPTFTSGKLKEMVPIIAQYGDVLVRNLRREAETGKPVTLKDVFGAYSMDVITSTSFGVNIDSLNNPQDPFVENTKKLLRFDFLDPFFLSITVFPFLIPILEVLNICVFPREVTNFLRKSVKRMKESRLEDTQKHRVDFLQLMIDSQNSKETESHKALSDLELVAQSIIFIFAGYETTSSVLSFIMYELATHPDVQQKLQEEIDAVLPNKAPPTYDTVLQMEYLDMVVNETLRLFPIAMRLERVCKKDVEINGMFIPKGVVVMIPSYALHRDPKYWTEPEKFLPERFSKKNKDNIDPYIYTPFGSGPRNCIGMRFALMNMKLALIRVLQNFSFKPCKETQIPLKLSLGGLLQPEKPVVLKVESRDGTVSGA

Row | SMILES | AUCinf, geometric mean ratio, After FRG: Before FRG (90% CI) ([2]; healthy male subjects, plasma) | AUClast, geometric mean ratio, After FRG: Before FRG (90% CI) ([2]; healthy male subjects, plasma) | C max, geometric mean ratio, After FRG: Before FRG (90% CI) ([2]; healthy male subjects, plasma) | AUC(0-inf) [2, 7] | AUC(0-inf) [2, 8] | AUC(0-t) [2, 7] | AUC(0-t) [2, 8] | further results
1 | CC(C)=CCCC(C)(O)[C@H]1CC[C@]2(C)[C@@H]1[C@H](O)C[C@@H]1[C@@]3(C)CC[C@H](O)C(C)(C)[C@@H]3CC[C@]12C (stereo in doubt) [PPD, protopanaxadiol] | – | – | – | – | – | – | – | inhibition of CYP3A4 activity [1]: potent inhibition
2 | OCc1ncc2n1-c1ccc(Cl)cc1C(c1ccccc1F)=NC2 [1‐hydroxymidazolam] | 0.924 (0.791–1.080) | 0.944 (0.805–1.107) | 0.750 (0.583–0.966) | – | – | – | – | AUCinf, geometric mean, After FRG [2, 5]: 74.221 ng·h/mL; AUClast, geometric mean, After FRG [2, 5]: 69.474 ng·h/mL; t 1/2, geometric mean, After FRG [2, 5]: 0.678 h; t max (median), After FRG [2, 5]: 0.517 h; AUCinf, geometric mean, Before FRG [2, 6]: 80.311 ng·h/mL; AUClast, geometric mean, Before FRG [2, 6]: 73.587 ng·h/mL; t 1/2, geometric mean, Before FRG [2, 6]: 0.728 h; t max (median), Before FRG [2, 6]: 0.500 h
3 | COc1ccc2nc([S+]([O-])Cc3ncc(CO)c(OC)c3C)[nH]c2c1 (centres unmarked) [5‐hydroxyomeprazole] | 1.050 (0.961–1.147) | 0.979 (0.918–1.045) | 0.945 (0.859–1.039) | – | – | – | – | AUCinf, geometric mean, After FRG [2, 5]: 283.859 ng·h/mL; AUClast, geometric mean, After FRG [2, 5]: 239.033 ng·h/mL; t 1/2, geometric mean, After FRG [2, 5]: 2.716 h; t max (median), After FRG [2, 5]: 3.000 h; AUCinf, geometric mean, Before FRG [2, 6]: 270.368 ng·h/mL; AUClast, geometric mean, Before FRG [2, 6]: 244.051 ng·h/mL; t 1/2, geometric mean, Before FRG [2, 6]: 1.971 h; t max (median), Before FRG [2, 6]: 3.000 h
4 | COc1ccc2c(c1)[C@]13CCCC[C@@H]1[C@H](C2)N(C)CC3 [Dextromethorphan, dextromethorphan] | 0.869 (0.638–1.184) | 0.907 (0.681–1.209) | 0.849 (0.688–1.047) | 43.5 ng·h/mL | 50.1 ng·h/mL | 17.1 ng·h/mL | 18.9 ng·h/mL | t 1/2, geometric mean, After FRG [2, 5]: 7.006 h; t 1/2, geometric mean, Before FRG [2, 6]: 7.540 h; Tmax [2]: 2 h
5 | CN1CC[C@@]23CCCC[C@@H]2[C@@H]1Cc1ccc(O)cc13 [Dextrorphan, dextrorphan] | 1.042 (0.932–1.164) | 1.044 (0.926–1.176) | 1.024 (0.876–1.198) | 66.1 ng·h/mL | 63.5 ng·h/mL | 60.3 ng·h/mL | 57.7 ng·h/mL | t max (median), Before FRG [2, 6]: 2.000 h; half-life [2, 7]: 3.43 h; half-life [2, 8]: 3.92 h
6 | CCCCc1nc(Cl)c(C(=O)O)n1Cc1ccc(-c2ccccc2-c2nn[nH]n2)cc1 [EXP3174] | 0.813 (0.687–0.963) | 0.811 (0.684–0.963) | 0.832 (0.694–0.997) | 2610 ng·h/mL | 3210 ng·h/mL | 2500 ng·h/mL | 3080 ng·h/mL | Tmax [2, 9]: 4 h; Tmax [2, 10]: 3 h
7 | CCCCc1nc(Cl)c(CO)n1Cc1ccc(-c2ccccc2-c2nn[nH]n2)cc1 [Losartan, losartan] | 1.047 (0.887–1.237) | 1.048 (0.887–1.239) | 0.974 (0.797–1.190) | 549 ng·h/mL | 524 ng·h/mL | 542 ng·h/mL | 517 ng·h/mL | half-life [2, 7]: 1.94 h; half-life [2, 8]: 1.86 h; Tmax [2, 9]: 1.5 h; Tmax [2, 10]: 1.5 h
8 | Cc1ncc2n1-c1ccc(Cl)cc1C(c1ccccc1F)=NC2 [Midazolam, midazolam] | 1.138 (1.007–1.285) | 1.157 (1.022–1.309) | 0.873 (0.732–1.041) | 126 ng·h/mL | 110 ng·h/mL | 119 ng·h/mL | 103 ng·h/mL | half-life [2, 7]: 2.96 h; half-life [2, 8]: 3.3 h
9 | COc1ccc2[nH]c([S+]([O-])Cc3ncc(C)c(OC)c3C)nc2c1 (centres unmarked) [Omeprazole, omeprazole] | 0.936 (0.819–1.069) | 0.931 (0.812–1.067) | 0.892 (0.747–1.066) | 1280 ng·h/mL | 1370 ng·h/mL | 1260 ng·h/mL | 1350 ng·h/mL | t max (median), Before FRG [2, 6]: 2.000 h; half-life [2, 7]: 1.22 h; half-life [2, 8]: 1.19 h
10 | CC(C)=CCC[C@](C)(O)[C@H]1CC[C@]2(C)[C@@H]1[C@H](O)C[C@@H]1[C@@]3(C)CC[C@H](O)C(C)(C)[C@@H]3[C@@H](O)C[C@]12C [PPT, protopanaxatriol] | – | – | – | – | – | – | – | inhibition of CYP3A4 activity [1]: potent inhibition
11 | Cn1c(=O)[nH]c2ncn(C)c2c1=O [Paraxanthine, paraxanthine] | 1.432 (1.125–1.823) | 1.017 (0.943–1.096) | 0.979 (0.906–1.057) | 53900 ng·h/mL | 37600 ng·h/mL | 24600 ng·h/mL | 24200 ng·h/mL | half-life [2, 7]: 20.7 h; half-life [2, 8]: 11.8 h; Tmax [2, 9]: 6 h
12 | CC(C)=CCC[C@](C)(O[C@@H]1O[C@H](CO[C@@H]2OC[C@H](O)[C@H](O)[C@H]2O)[C@@H](O)[C@H](O)[C@H]1O)[C@H]1CC[C@]2(C)[C@@H]1[C@H](O)C[C@@H]1[C@@]3(C)CC[C@H](O[C@@H]4O[C@H](CO)[C@@H](O)[C@H](O)[C@H]4O[C@@H]4O[C@H](CO)[C@@H](O)[C@H](O)[C@H]4O)C(C)(C)[C@@H]3CC[C@]12C [Rb2, ginsenoside Rb2] | – | – | – | – | – | – | – | effect on CYP enzyme activity [3]: do not affect
13 | CC(C)=CCC[C@](C)(O[C@@H]1O[C@H](CO[C@@H]2O[C@@H](CO)[C@H](O)[C@H]2O)[C@@H](O)[C@H](O)[C@H]1O)[C@H]1CC[C@]2(C)[C@@H]1[C@H](O)C[C@@H]1[C@@]3(C)CC[C@H](O[C@@H]4O[C@H](CO)[C@@H](O)[C@H](O)[C@H]4O[C@@H]4O[C@H](CO)[C@@H](O)[C@H](O)[C@H]4O)C(C)(C)[C@@H]3CC[C@]12C [Rc, ginsenoside Rc] | – | – | – | – | – | – | – | effect on CYP enzyme activity [3]: do not affect
14 | CC(C)=CCC[C@](C)(O[C@@H]1O[C@H](CO)[C@@H](O)[C@H](O)[C@H]1O)[C@H]1CC[C@]2(C)[C@@H]1[C@H](O)C[C@@H]1[C@@]3(C)CC[C@H](O)C(C)(C)[C@@H]3[C@@H](O[C@@H]3O[C@H](CO)[C@@H](O)[C@H](O)[C@H]3O)C[C@]12C [Rg1, ginsenoside Rg1] | – | – | – | – | – | – | – | effect on CYP enzyme activity [3]: do not affect
15 | CC(C)=CCC[C@](C)(O[C@@H]1O[C@H](CO)[C@@H](O)[C@H](O)[C@H]1O)[C@H]1CC[C@]2(C)[C@@H]1[C@H](O)C[C@@H]1[C@@]3(C)CC[C@H](O)C(C)(C)[C@@H]3CC[C@]12C [compound K, 20‐O‐(β‐D‐glucopyranosyl)‐20(S)‐protopanaxadiol] | – | – | – | – | – | – | – | inhibition of CYP3A4 activity [1]: moderate inhibition; inhibition of CYP2C9 activity [4]: moderate inhibition
16 | CC(C)=CCC[C@](C)(O[C@@H]1O[C@H](CO[C@@H]2O[C@H](CO)[C@@H](O)[C@H](O)[C@H]2O)[C@@H](O)[C@H](O)[C@H]1O)[C@H]1CC[C@]2(C)[C@@H]1[C@H](O)C[C@@H]1[C@@]3(C)CC[C@H](O[C@@H]4O[C@H](CO)[C@@H](O)[C@H](O)[C@H]4O[C@@H]4O[C@H](CO)[C@@H](O)[C@H](O)[C@H]4O)C(C)(C)[C@@H]3CC[C@]12C [ginsenoside Rb1] | – | – | – | – | – | – | – | effect on CYP enzyme activity [3]: do not affect
17 | CC(C)=CCC[C@](C)(O)[C@H]1CC[C@]2(C)[C@@H]1[C@H](O)C[C@@H]1[C@@]3(C)CC[C@H](O[C@@H]4O[C@H](CO)[C@@H](O)[C@H](O)[C@H]4O)C(C)(C)[C@@H]3CC[C@]12C [ginsenoside Rh2] | – | – | – | – | – | – | – | inhibition of CYP3A4 activity [1]: moderate inhibition; inhibition of CYP2C9 activity [4]: moderate inhibition
